Data reported in patent US20250000801A1, “DAROLUTAMIDE PHARMACEUTICAL COMPOSITION, PREPARATION METHOD THEREFOR AND USE THEREOF” (Sinotherapeutics Inc., priority 2021, published 2025).
Converted amounts (≈) assume the structure as drawn. Where two headings read alike, the source gives them in different places.

Key:
physchem = settings: 37.2 °C, pH 6.8, aqueous buffer, thermodynamic from solid
Protocol: About 200 mg of sample is weighted into a 50 ml shaking flask and then 50 ml of medium with pH of 6.8 is added. The shaking flask is mixed well and placed in a shaker. The shaker temperature is set as 37.2° C. and the rotation speed is set as 50 rpm. The sample is taken at 4 hours and 0.45 μM filter membrane is used for filtration to collect filtrate. High-performance liquid chromatography is used for determination with wavelength at 286 nm.

[1] = cited from earlier work
[2] = test system: non-metastatic castration-resistant prostate cancer (nmCRPC); settings: Phase III, cited from earlier work
[3] = cited from earlier work; remark: listed apart in the source
[4] = Determination of dissolution, USP II method (paddle method); format: physicochemical; settings: phosphate buffer pH 6.8, 1000 ml, 75 rpm
Protocol: In the following examples, the dissolution of the formulation is determined using the USP II method (paddle method) in the US Pharmacopoeia, with specific parameters as follows.
According to the above procedures, the dissolutions of Darolutamide in phosphate buffer, pH 6.8 were determined and the results were shown in Table 9.

[5] = single dose pharmacokinetic study

CC(O)c1cc(C(=O)N[C@@H](C)Cn2ccc(-c3ccc(C#N)c(Cl)c3)n2)n[nH]1 (stereo partly drawn) [Darolutamide, N-[(1S)-2-[3-(3-chloro-4-cyanophenyl)-1H-pyrazol-1-yl]-1-methylethyl]-5-(1-hydroxyethyl)-1H-pyrazole-3-carboxamide]
solubility at 4 h (physchem): 24.9 µg/mL (≈ 62.4 µM)
BCS classification ([1]; low solubility and high permeability): BCS Class II
solubility in aqueous media ([1]; pH 1-6.8): 14 to 23 µg/mL
reduction of the risk of disease metastasis or death ([2]; Darolutamide combined with ADT vs placebo combined with ADT): 59%
median metastasis free survival (MFS) ([2]; Darolutamide combined with ADT): 40.4 months
bioavailability ([3]; 300 mg, fasting state): about 30%
coefficient of variation (CV %) of AUC(0-4) ([3]; administration dosage of 300 mg): 69.6%
coefficient of variation (CV %) of AUC(0-4) ([3]; administration dosage of 600 mg): 41.4%
increase of AUC(0-4) in feeding state ([3]; after administration of 300 mg or 600 mg): 2.5 fold
increase of bioavailability in feeding state ([3]; single dose administration of 300 mg): 2.5 fold
increase of bioavailability in feeding state ([3]; single dose administration of 600 mg): 2.8 fold
end half-life [3, 5]: 10 to 15 h
median Tmax [3, 5]: 3 to 6 h
Dissolution ([4]; 5 min): 7%
Dissolution ([4]; 15 min): 10%
Dissolution ([4]; 30 min): 9%
Dissolution ([4]; 45 min): 12%
